# Assay results published in patent US7414042B2, “Method and composition for selectively inhibiting melanoma” (The Board of Trustees of The University of Illinois, priority 1995, dated 2008).
# Where two headings read alike, the source gives them in different places.
# Legend:
# [1] = tested on: human melanoma and nonmelanoma cancer cell lines
# Protocol: (§2) In the following Table 1, the extracted betulinic acid and the other pure compounds were tested for cycotoxity against the following cultured human cell lines: A431 (squamous cells), BC-1 (breast), COL-2 (colon), HT-1080 (sarcoma), KB (human oral epidermoid carcinoma), LNCaP (prostate), LU-1 (lung), MEL-2 (melanoma), U373 (glioma) and ZR-75-1 (breast).
# (§3) Cytotoxicity of the crude extracts and purified compounds was determined in a number of cultured human cancer cell lines. The cells were cultured in appropriate media and under standard conditions. To maintain logarithmic growth, the media were changed 24 hours prior to cytotoxic assays. On the day of the assay, the cells were harvested by trypsinization, counted, diluted in media, and added to 96-well plates containing test compounds dissolved in DMSO; the final DMSO concentration was 0.05%.
# (§4) The plates were incubated for three days. Following the incubation period, the cells were fixed and stained with sulforhodamine B (SRB) dye. The bound dye was liberated with Tris base, and the OD515 was measured on an ELISA reader. The growth of the betulinic acid-treated cells was determined by the OD515 values, and the growth was compared to the OD515 values of DMSO-treated control cells. Dose response studies were performed to generate ED50 values.
# (§5) The biological evaluation of the derivatives focused on the activity against human melanoma cell lines. In particular, the following betulinic acid derivatives were prepared and tested for cytotoxicity profile against human melanoma cell lines and against a number of selected nonmelanoma cell lines.
# MEL-2 (melanoma) = assay: Cytotoxicity against cultured human melanoma cells (SRB); assay type: cell-based; conditions: for ED50 (Std. Dev.) MEL-2: derivatives, Tables 2-6; for IC50: Homo sapiens, MEL2, 72 h, three days incubation, SRB, Table 1 and text, read-out: ED50 MEL-2
# Protocol: (§1) The plates were incubated for three days. […] Dose response studies were performed to generate ED50 values.
# LOX melanoma cell line = assay: Cytotoxicity of betulinic acid derivatives; assay type: cell-based, human; conditions: Tables 2-6
# Protocol: as §1
# [2] = tested on: KB (human oral epidermoid carcinoma); assay: Cytotoxicity against cultured human cancer cells (SRB); assay type: cell-based; conditions: for ED50 (Std. Dev.) KB: derivatives, Tables 2-6; for IC50: Homo sapiens, 72 h, three days incubation, SRB, Table 1, read-out: ED50 KB
# Protocol: as §1
# [3] = tested on: MALE-3M melanoma cell line; assay: Cytotoxicity of betulinic acid derivatives; assay type: cell-based, human; conditions: Tables 2-6
# Protocol: as §1
# MEL-6 melanoma cell line = assay: Cytotoxicity of betulinic acid derivatives; assay type: cell-based, human; conditions: Tables 2-6
# Protocol: as §1
# MEL-8 melanoma cell line = assay: Cytotoxicity of betulinic acid derivatives; assay type: cell-based, human; conditions: Tables 2-6
# Protocol: as §1
# [4] = tested on: human melanoma and nonmelanoma cancer cell lines; assay: Cytotoxicity profile across the panel of human cancer cell lines; conditions: Table 1 panel
# Protocol: as §2, §3, §4, §5
# ZR-75-1 (breast) = assay: Cytotoxicity against cultured human cancer cells (SRB); assay type: cell-based; conditions: Homo sapiens, ZR-75-1, 72 h, read-out: ED50 ZR 75-1
# Protocol: as §1
# BC-1 (breast) = assay: as above; assay type: cell-based; conditions: Homo sapiens, 72 h, read-out: ED50 BC-1
# Protocol: as §1
# COL-2 (colon) = assay: as above; assay type: cell-based; conditions: Homo sapiens, Col2, 72 h, read-out: ED50 COL-2
# Protocol: as §1
# U373 (glioma) = assay: as above; assay type: cell-based; conditions: Homo sapiens, U373 MG, 72 h, read-out: ED50 U373
# Protocol: as §1
# LNCaP (prostate) = assay: as above; assay type: cell-based; conditions: Homo sapiens, LNCaP, 72 h, read-out: ED50 LNCaP
# Protocol: as §1
# A431 (squamous cells) = assay: as above; assay type: cell-based; conditions: Homo sapiens, A-431, 72 h, read-out: ED50 A431
# Protocol: as §1
# HT-1080 (sarcoma) = assay: as above; assay type: cell-based; conditions: Homo sapiens, HT-1080, 72 h, three days incubation, read-out: ED50 HT-1080
# Protocol: as §1
SMILES,cytotoxicity and selectivity compared with betulinic acid or the corresponding analog [1],ED50 (Std. Dev.) MEL-2 (MEL-2 (melanoma)),ED50 (Std. Dev.) LOX (LOX melanoma cell line) [µg/mL],ED50 (Std. Dev.) KB [2] [µg/mL],ED50 (Std. Dev.) MALE-3M [3] [μg/mL],ED50 (Std. Dev.) MEL-6 (MEL-6 melanoma cell line),ED50 (Std. Dev.) MEL-8 (MEL-8 melanoma cell line),other results
C=C(C)C1CCC2(C(=O)O)CCC3(C)C(CCC4C5(C)CCC(=NOC)C(C)(C)C5CCC43C)C12 (stereo not shown) [Compound 13],decrease in selective cytotoxicity,8.3 µg/mL,>20,4.3,,,,
CON=C1CCC2(C)C(CCC3(C)C2CCC2C4C(C(C)C)CCC4(C(=O)O)CCC23C)C1(C)C (stereo not shown) [Compound 5],less active,>20 µg/mL,,,>20,>20 µg/mL,>20 µg/mL,
C=C(C)C1CCC2(C=NO)CCC3(C)C(CCC4C5(C)CCC(=NO)C(C)(C)C5CCC43C)C12 (stereo not shown) [Compound 4],"improved the cytotoxicity profile, although selectivity was lost",2.2 (0.7) μg/mL,4.1,3.3,17.5,11.9 (2.7) μg/mL,1.4 (0.6) μg/mL,
"CC(=O)O[C@H]1C(=O)[C@@]2(C)[C@H]([C@H](OC(=O)c3ccccc3)[C@]3(O)C[C@H](OC(=O)[C@H](O)[C@@H](NC(=O)c4ccccc4)c4ccccc4)C(C)=C1C3(C)C)[C@]1(OC(C)=O)CO[C@@H]1C[C@@H]2O [Taxol, paclitaxel]",,,,,,,,"cytotoxic activity profile, cell-type selectivity [4]: relatively intense, nonselective cytotoxic activity; IC50 (MEL-2 (melanoma)): 0.06 µg/mL; IC50 (ZR-75-1 (breast); three days incubation, SRB): 0.02 µg/mL; IC50 (BC-1 (breast); three days incubation, SRB): 0.02 µg/mL; IC50 (COL-2 (colon); three days incubation, SRB): 0.02 µg/mL; IC50 (U373 (glioma); three days incubation, SRB): 0.008 µg/mL; IC50 (LNCaP (prostate); three days incubation, SRB): 0.02 µg/mL; IC50 [2]: 0.02 µg/mL"
"C=C(C)[C@@H]1CC[C@]2(C)CC[C@]3(C)[C@H](CC[C@@H]4[C@@]5(C)CC[C@H](O)C(C)(C)[C@@H]5CC[C@]43C)[C@@H]12 [Compound 15, Lupeol]",,17.6 µg/mL,15.6,>20,,,,
C=C(C)C1CCC2(C=O)CCC3(C)C(CCC4C5(C)CCC(=O)C(C)(C)C5CCC43C)C12 (stereo not shown) [Compound 1],,7.4 (2.4) μg/mL,18.5,12.9,>20,>20 µg/mL,3.2 (1.2) μg/mL,
"C=C(C)[C@@H]1CC[C@]2(C)CC[C@]3(C)[C@H](CC[C@@H]4[C@@]5(C)CC[C@H](OC(=O)c6ccccc6)C(C)(C)[C@@H]5CC[C@]43C)[C@@H]12 [Compound 16, Lupeol benzoate]",,>20 µg/mL,>20,>20,,,,
"C=C(C)[C@@H]1CC[C@]2(C(=O)O)CC[C@]3(C)[C@H](CC[C@@H]4[C@@]5(C)CCC(=O)C(C)(C)[C@@H]5CC[C@]43C)[C@@H]12 [Compound 8, Betulonic acid]",decrease in selective cytotoxicity,0.9 (0.8) μg/mL,6.9,2.5,20,15.3 (3.4) μg/mL,0.4 (0.1) μg/mL,
CC(C)C1CCC2(C(=O)O)CCC3(C)C(CCC4C5(C)CCC(=NO)C(C)(C)C5CCC43C)C12 (stereo not shown) [Compound 7],comparable biological activity,2.2 (0.3) μg/mL,,,13.9,13.1 (1.1) μg/mL,1.6 (1.1) μg/mL,
COc1cc([C@@H]2c3cc4c(cc3[C@H](O)[C@H]3COC(=O)[C@H]23)OCO4)cc(OC)c1OC [Podophyllotoxin],,,,,,,,"cytotoxic activity profile, cell-type selectivity [4]: relatively intense, nonselective cytotoxic activity; IC50 (MEL-2 (melanoma)): 0.003 µg/mL; IC50 (A431 (squamous cells)): 0.03 µg/mL; IC50 (ZR-75-1 (breast)): 0.4 µg/mL; IC50 (BC-1 (breast)): 0.03 µg/mL; IC50 (COL-2 (colon)): 0.005 µg/mL; IC50 (U373 (glioma)): 0.004 µg/mL; IC50 (LNCaP (prostate)): 0.04 µg/mL; IC50 [2]: 0.08 µg/mL"
"CC(C)[C@@H]1CC[C@]2(C(=O)O)CC[C@]3(C)[C@H](CC[C@@H]4[C@@]5(C)CCC(=O)C(C)(C)[C@@H]5CC[C@]43C)[C@@H]12 [Compound 6, Dihydrobetulonic acid]",comparable biological activity,0.7 (0.6) μg/mL,,,20,10.8 (2.6) μg/mL,0.9 (0.4) μg/mL,
"C=C(C)[C@@H]1CC[C@]2(C(=O)OC)CC[C@]3(C)[C@H](CC[C@@H]4[C@@]5(C)CC[C@H](O)C(C)(C)[C@@H]5CC[C@]43C)[C@@H]12 [Compound 14, Methyl betulinate]",,8.3 µg/mL,12.5,11.8,,,,
"CC(C)[C@@H]1CC[C@]2(C(=O)O)CC[C@]3(C)C(CCC4[C@@]5(C)CC[C@H](O)C(C)(C)C5CC[C@]43C)C12 (stereo partly shown) [Compound 11, Dihydrobetulinic acid]",less active,5.8 µg/mL,>20,>20,,,,
"C=C(C)[C@@H]1CC[C@]2(CO)CC[C@]3(C)[C@H](CC[C@@H]4[C@@]5(C)CC[C@H](O)C(C)(C)[C@@H]5CC[C@]43C)[C@@H]12 [Compound 12, lup-20(29)-ene-3β,28-diol]",,>20 µg/mL,>20,>20,,,,
CC[C@@]1(O)C(=O)OCc2c1cc1n(c2=O)Cc2cc3ccccc3nc2-1 [Camptothecin],,,,,,,,"cytotoxic activity profile, cell-type selectivity [4]: relatively intense, nonselective cytotoxic activity; IC50 (MEL-2 (melanoma)): 0.02 µg/mL; IC50 (HT-1080 (sarcoma)): 0.01 µg/mL; IC50 (ZR-75-1 (breast); three days incubation, SRB): 0.001 µg/mL; IC50 (BC-1 (breast); three days incubation, SRB): 0.07 µg/mL; IC50 (COL-2 (colon); three days incubation, SRB): 0.005 µg/mL; IC50 (LNCaP (prostate); three days incubation, SRB): 0.006 µg/mL"
C=C(C)C1CCC2(C=NOC)CCC3(C)C(CCC4C5(C)CCC(=NOC)C(C)(C)C5CCC43C)C12 (stereo not shown) [Compound 3],,>20 µg/mL,>20,20,>20,>20 µg/mL,>20 µg/mL,
